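Interpolation was linear, between the two tested concentrations surrounding the appropriate level; five concentrations were tested over 48 hours in 96-well plates. At the TGI there is no net growth.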
Assays:
Test in all cases: DTP human tumour cell line panel, 48 h
IGROV1 ovarian = system: IGROV1 ovarian
786-0 renal = system: 786-0 renal
A549 NSCLC = system: A549 NSCLC
HT29 colon = system: HT29 colon
HOP-18 NSCLC = system: HOP-18 NSCLC
SR leukemia = system: SR leukemia
DMS 273 small cell lung = system: DMS 273 small cell lung
SK-MEL-2 melanoma = system: SK-MEL-2 melanoma
SK-OV-3 ovarian = system: SK-OV-3 ovarian
HOP-62 NSCLC = system: HOP-62 NSCLC
U251 CNS = system: U251 CNS
SNB-75 CNS = system: SNB-75 CNS
LXFL 529 NSCLC = system: LXFL 529 NSCLC
ACHN renal = system: ACHN renal
NCI-H226 lung = system: NCI-H226 lung
COLO 205 colon = system: COLO 205 colon
HCC-2998 colon = system: HCC-2998 colon
OVCAR-3 ovarian = system: OVCAR-3 ovarian
RXF-631 renal = system: RXF-631 renal
XF 498 CNS = system: XF 498 CNS
SN12C renal = system: SN12C renal
CAKI-1 renal = system: CAKI-1 renal
SF-295 CNS = system: SF-295 CNS
NCI-H23 lung = system: NCI-H23 lung
KM20L2 colon = system: KM20L2 colon
SNB-19 CNS = system: SNB-19 CNS
OVCAR-4 ovarian = system: OVCAR-4 ovarian
HOP-92 NSCLC = system: HOP-92 NSCLC
M14 melanoma = system: M14 melanoma
EKVX NSCLC = system: EKVX NSCLC
K-562 leukemia = system: K-562 leukemia
CCRF-CEM leukemia = system: CCRF-CEM leukemia
MALME-3M melanoma = system: MALME-3M melanoma
UACC-257 melanoma = system: UACC-257 melanoma
UO-31 renal = system: UO-31 renal
HCT-15 colon = system: HCT-15 colon
SK-MEL-5 melanoma = system: SK-MEL-5 melanoma
M19-MEL melanoma = system: M19-MEL melanoma
NCI-H460 lung = system: NCI-H460 lung
MOLT-4 leukemia = system: MOLT-4 leukemia
SF-539 CNS = system: SF-539 CNS
HL-60(TB) leukemia = system: HL-60(TB) leukemia
DMS 114 small cell lung = system: DMS 114 small cell lung
SK-MEL-28 melanoma = system: SK-MEL-28 melanoma
RPMI-8226 leukemia = system: RPMI-8226 leukemia
UACC-62 melanoma = system: UACC-62 melanoma
TK-10 renal = system: TK-10 renal
SW-620 colon = system: SW-620 colon
OVCAR-5 ovarian = system: OVCAR-5 ovarian
KM12 colon = system: KM12 colon
DLD-1 colon = system: DLD-1 colon
RXF 393 renal = system: RXF 393 renal
LOX IMVI melanoma = system: LOX IMVI melanoma
OVCAR-8 ovarian = system: OVCAR-8 ovarian
HCT-116 colon = system: HCT-116 colon
SNB-78 CNS = system: SNB-78 CNS
SF-268 CNS = system: SF-268 CNS
NCI-H522 lung = system: NCI-H522 lung
A498 renal = system: A498 renal

Measured: TGI

CCP(C)(=O)CC
not listed: NCI-H522 lung | A498 renal
> 100 µM: all other assays above

C/C(=C\CNc1ncnc2c1ncn2C1CCCCO1)COP(=O)(O)O (stereo not drawn)
not listed: A498 renal
> 100 µM: all other assays above

CN(C)CC1CCCC/C1=N\OC(=O)c1ccccc1 (stereo not drawn)
not listed: SNB-19 CNS
> 100 µM: all other assays above

Source: PubChem BioAssay (NCI)
